{"source": "patent US12350310B2", "about": "“Treatment and prevention of nephrotoxin-induced kidney injuries” (Farsight Medical Technology (Shanghai) Co., Ltd., priority 2019, dated 2025)", "key": {"[1]": {"tested_on": "rhabdomyolysis-induced acute kidney injury", "experiment": "Rhabdomyolysis-induced (glycerine) acute kidney injury model in rats (Example 3)", "format": "in vivo, male SD rats", "conditions": "Compound I 3 mg/kg IP at 6 h and 1 h prior to glycerine, kidneys after 48 h, Group 3, Mean (SEM)", "experimental": "The efficacy of Compound I in protection against rhabdomyolysis-induced acute kidney injury was tested in a model study in male SD rats. The acute kidney injury model was induced in the rats by bilateral intra-muscular injection of 50% Glycerine (at a dose volume of 10 ml/kg body weight, divided into two sites of injection at each limb). Glycerine induces physiological conditions which are closely associated with rhabdomyolysis, such as myoglobinuria, tubular necrosis, and renal vasoconstriction.\nThree groups formed part of the study: sham, vehicle, and compound I. Except for the sham group, where no glycerine was injected, animals were dosed twice intraperitoneally with either Compound I or Vehicle: at 6 h and at 1 h prior to receiving the glycerine injection (see Table 3).\nAfter 48 h, the animals were euthanized, and their right and left kidneys were fixed in formalin 10%. Each kidney was cut longitudinally into 2 halves, both placed in a cassette and processed in paraffin. Sections were cut and stained using Hematoxylin and Eosin (H&E). The kidney sections were examined and histopathological analysis and scoring was performed for tubular, endothelial, glomerular and tubulointerstitial damage based on scoring systems in the art (e.g. Khalid U. et al, Journal of Histology & Histopathology. Volume 3, Article 1. 2016). Tubular epithelial necrosis scoring was based on the total number of tubules in the outer stripe of the outer medulla (OSOM). Tubulointerstitial damage was scored as a total percentage of the entire tissue observed in the section. The scores of each parameter were also added to provide a total histopathological score.\nTable 4 summarizes the histopathology scoring results for the test groups sham (Group 1), vehicle (Group 2) and compound I (Group 3). All data are presented as Mean±SEM. All treatment groups were compared to the sham group (Group 1) or to the vehicle group (Group 2) using Student's T-Test. A p value <0.05 is considered to represent a significant difference."}, "[2]": {"tested_on": "gentamicin-induced acute kidney injury", "experiment": "Gentamicin-induced acute kidney injury model in rats (Example 1)", "format": "in vivo, male Wistar rats", "conditions": "Compound I 3 mg/kg i.p. before gentamicin 100 mg/kg i.p. daily", "experimental": "Efficacy of the compound of Compound I against gentamicin-induced acute kidney injury was tested in a model study with male Wistar rats (180-220 g) randomly grouped based on body weights. Three groups formed part of the study: control, vehicle, and compound I (see Table I). Except for the control group, gentamicin (100 mg/kg) was given by intraperitoneal injection for 10 consecutive days, once daily from Day 1 to Day 10. The first day of gentamicin injection was designated as Day 1 of the study.\nThe vehicle, or the Compound I formulated in the vehicle was administered intraperitoneally (i.p.) for 10 days, from Day 1 to Day 10 of the study (total 11 times). On initiation of the experiment (Day 1), Compound I (3 mg/kg) was administered by i.p. injection 6 h, and 1 h before the gentamicin injection. Thereafter, on Day 2 to Day 10, Compound I was administered once daily (3 mg/kg) 1 h prior to the gentamicin injection. Body weights of the rats were recorded daily. On the day 10, the animals were euthanized and blood sample was collected via cardiac punction. Serum was collected and stored at −80° C. for kidney function analysis of blood urea nitrogen (BUN) and creatinine."}, "[3]": {"tested_on": "gentamicin-induced acute kidney injury", "experiment": "Gentamicin-induced acute kidney injury model in rats, pathology and dose response (Example 2)", "format": "in vivo", "conditions": "Compound I 0.5, 3, 9 mg/kg i.p.", "experimental": "A further study in rats was carried out essentially in analogy to the general study protocol described in Example 1, to further assess the efficacy and impact of Compound I against gentamicin-induced acute kidney injury and to test the dose response. The tissue pathology, as well as the additional biomarkers were assessed.\nFive groups formed part of the study (See Table 2): control (Group 1), vehicle (Group 2), and animals receiving Compound I at doses of 0.5 mg/kg (Group 3), 3 mg/kg (Group 4) and 9 mg/kg (Group 5). Except for the control Group 1, gentamicin (100 mg/kg) was given by intraperitoneal injection for 10 consecutive days, once daily from Day 1 to Day 10.\nThe vehicle, or Compound I formulated in the vehicle was administered intraperitoneally (i.p.) for 10 days, from Day 1 to Day 10 of the study (total 11 times). On initiation of the experiment (Day 1), Compound I at the specified dose amounts was administered by i.p. injection 6 h, and 1 h before the gentamicin injection to the animals in groups 3, 4 and 5. Thereafter, on Day 2 to Day 10, Compound I was administered once daily at the specified dose to said study groups, approximately 1 h prior to the gentamicin injection. On day 10, the rats were euthanized. Blood samples were collected, and the kidney tissues (both left and right kidneys) of the rats were also taken for H&E staining. Histopathological evaluation was performed on the kidney sections using standard methods and scoring criteria in the art to assess the level of tissue damage caused by the gentamicin-induced acute kidney injury. The kidney sections were assessed and scored for: necrosis of renal tubules, tubular dilation, loss of tubular brush border, cast formation in the renal tubules, and interstitial inflammatory cell (neutrophil) infiltration. The scoring was performed on a scale of 0 to 4 (0=0% i.e. no observation, 1≤5%, 2=5-25%, 3=25-50%, 4≥50% i.e. extensive, severe, or widely visible damage) on both left and right kidney tissues. The scoring was accumulated to provide a total combined score.\nKidney function analysis based on blood urea nitrogen (BUN) and creatinine in the serum was performed. Assay in plasma for biomarkers NGAL (neutrophil gelatinase-associated lipocalin) and Kim-1 (kidney injury molecule-1) was also determined."}, "[4]": {"conditions": "especially G4 and G5, versus G2 vehicle"}, "[5]": {"conditions": "gentamicin 100 mg/kg daily, Day 10, versus G2 vehicle"}, "[6]": {"conditions": "gentamicin 100 mg/kg daily, Day 10, versus Group 2 vehicle"}}, "note": "Values joined by “and” are separate entries in the source; they are usually repeats but may differ in a detail not shown here. Equal values may be shown once. “Also recorded” adds a separate entry of the source."}
{"smiles": "C/C=C/C[C@@H](C)[C@@H](O)[C@H]1C(=O)N[C@@H](CC)C(=O)N(C)[C@H](OCCN(C)C)C(=O)N(C)[C@@H](CC(C)C)C(=O)N[C@@H](C(C)C)C(=O)N(C)[C@@H](CC(C)C)C(=O)N[C@@H](C)C(=O)N[C@H](C)C(=O)N(C)[C@@H](CC(C)C)C(=O)N(C)[C@@H](CC(C)C)C(=O)N(C)[C@@H](C(C)C)C(=O)N1C", "note": "[Compound I, [(R)-2′ (2-dimethylaminoethoxy)-Sar]^3 cyclosporin A]", "values": [{"measurement": "ED (Endothelial damage) score, Mean", "setting": "[1]", "value": 0.00, "unit": "a.u."}, {"measurement": "GD (Glomerular damage) score, Mean", "setting": "[1]", "value": 0.00, "unit": "a.u."}, {"measurement": "TD (Tubular Damage) score, Mean", "setting": "[1]", "value": "1.10±0.07 a.u. and 1.10## a.u."}, {"measurement": "TID (Tubulointersititial damage) score, Mean", "setting": "[1]; p<0.01 vs. vehicle", "value": "1.15±0.08 a.u. and 1.15##** a.u."}, {"measurement": "Total Histopathological Score, Mean", "setting": "[1]; p<0.01 vs. vehicle", "value": "2.15±0.08 a.u. and 2.15##** a.u."}, {"measurement": "rate of body weight gain over the 10-day study period (FIG. 1A)", "setting": "[2]; Day 1-10, versus vehicle group", "value": "faster rate of body weight gain"}, {"measurement": "overall body-weight change from baseline measurement on Day 1 (FIG. 1B)", "setting": "[2]; Day 1 to Day 10, versus vehicle group", "value": "higher compared to the rats only treated with vehicle"}, {"measurement": "serum blood urea nitrogen (BUN) level at endpoint (FIG. 2)", "setting": "[2]; Day 10 serum", "value": "lower, compared to levels determined for the vehicle group; also recorded: comparable or similar levels as measured for the control group"}, {"measurement": "serum creatinine level at endpoint (FIG. 3)", "setting": "[2]; Day 10 serum", "value": "lower, compared to levels determined for the vehicle group; also recorded: comparable or similar levels as measured for the control group"}, {"measurement": "total acute kidney injury pathology scoring of kidney tissue (FIG. 4A)", "setting": "[3]; especially 3 and 9 mg/kg groups, gentamicin 100 mg/kg daily, Day 10, versus G2 vehicle", "value": "statistically significant impact in terms of generally reducing the severity of physical injury"}, {"measurement": "KIM-1 biomarker level in plasma at endpoint (FIG. 7)", "setting": "[3]; [4]", "value": "statistically relevant reduced levels"}, {"measurement": "NGAL biomarker level in plasma at endpoint (FIG. 8)", "setting": "[3]; [4]", "value": "statistically relevant reduced levels"}, {"measurement": "severity of neutrophil infiltration (FIG. 4B)", "setting": "[3]; [5]", "value": "markedly reduced"}, {"measurement": "severity of tubular dilation (FIG. 4B)", "setting": "[3]; [5]", "value": "markedly reduced"}, {"measurement": "serum BUN level at endpoint (FIG. 6)", "setting": "[3]; [6]", "value": "lower"}, {"measurement": "serum creatinine level at endpoint (FIG. 5)", "setting": "[3]; [6]", "value": "lower"}]}
